Experimental data taken from patent publication US9513299B2, “Methods for the detection and diagnosis of malaria using an electrochemical sensor” (EMPIRE TECHNOLOGY DEVELOPMENT LLC, priority 2010, dated 2016).
Entries after “also recorded” stand apart in the source; their conditions may differ.

Tests used:
Format in all cases: biochemical
human hemoglobin (HbA0) = target: T1, human hemoglobin (HbA0) (Homo sapiens, UniProt P68871+P69905); assay: Peroxidase (electrocatalytic) activity of hemoglobin immobilized on nickel coated electrode, cyclic voltammetry with H2O2; conditions: for peroxidase activity of immobilized HbA0: IHP 150 μM or 2,3-DPG 2 mM, versus hemoglobin control (FIG. 5); for peroxidase activity of immobilized HbA0 / Electrocatalytic Activity in Healthy HbA0: 85 mM H2O2; for Electrocatalytic Activity in Healthy HbA0: change after adding modulator, IHP 150 μM, 2,3-DPG 2 mM
T1 construct: purchased Sigma chemicals H-267
Experimental: Crystal ferrous human hemoglobin (HbA0) was obtained from Sigma chemicals (H-267). The stock solution was prepared by dissolving 5 mg HbA0 in one milliliter of 0.05 M phosphate buffered saline (pH 7.2) (Sigma chemicals).
For the electrochemical experiments we used a computer controlled Autolab (PGSTAT) modular electrochemical system (Eco Chemie Ultecht, The Netherlands) that was operated with GPES software (Eco Chemie). All experiments were performed in a conventional three-electrode system cell with an Ag/AgCl reference electrode (BAST), a Pt wire as counter electrode, and a nickel coated chip as working electrode at ambient room temperature (21° C.).
Cyclic voltammetry was used for the immobilization of hemoglobin onto nickel coated electrodes following a similar approach as Salimi et al. To immobilize hemoglobin on the electrode surface, the electrodes were immersed in fresh 0.05 M phosphate buffer solution (pH 7.2) containing 5 mg ml-1 hemoglobin and the potential was repetitively cycled (30 scans) from 1 to −0.5 V vs. Ag/AgCI at a scan rate of 100 mV s^−1. After immobilization, the chips were washed thoroughly with phosphate buffer and subsequently subjected to cyclovoltammetric measurements in the presence of 0-8 M urea.
After hemoglobin immobilization the chips were incubated in presence of 0-8 M urea for 30 min. Hydrogen peroxide (85 mM) was added to monitor the peroxidase activity change for the unfolded protein. All the experiments were performed with the setup described for electrochemical measurements. The potential was repetitively cycled (3 scans) from −0.5 to 0.5 V vs. Ag/AgCI at a scan rate of 100 mV s^−1. In a control experiment the same electrochemical measurements were performed on a reference chip without immobilized hemoglobin.
In a control experiment, after the immobilization of hemoglobin on the chip, the tetramer dimer equilibrium was shifted towards dimer by inositol hexaphosphate at a final concentration of 150 μM and electrochemical measurements were performed. The potential was repetitively cycled (3 scans) from −0.5 to 0.5 V vs. Ag/AgCI at a scan rate of 100 mV s^−1 as described before. The peroxidase activity of hemoglobin was also measured under this condition by adding 85 mM hydrogen peroxide. In another control experiment, the same electrochemical and peroxidase activity measurements were performed on immobilized hemoglobin in presence of the tetramer stabilizer 2,3-DPG at a final concentration of 2 mM.

[1] = target: T2, hemoglobin samples from malaria patients (Malaria-Infected HbA0) (Homo sapiens, UniProt P68871+P69905); assay: Electrocatalytic activity of immobilized hemoglobin from whole blood in the presence of allosteric modulators (Example 4); conditions: change after adding modulator; IHP 150 μM, 2,3-DPG 2 mM; 85 mM H2O2
T2 construct: Hemoglobin from whole blood of test subjects is immobilized to the surface of electrodes; from tissue; host or cells: whole blood of malaria patients
Experimental: (§1) The assay of this example is illustrated in FIG. 8. Hemoglobin from whole blood of test subjects is immobilized to the surface of electrodes in two separate reaction cells as described in Example 1. Hydrogen peroxide at a final concentration of 85 mM is added in PBS to monitor the electrocatalytic activity for the immobilized protein. All the experiments are performed with the setup described above. The potential is repetitively cycled (3 scans) from −0.5 to 0.5 V vs. Ag/AgCl at a scan rate of 100 mV s^−1. This device is linked to a computer to record the current.
(§2) Next, inositol hexaphosphate (IHP) is added to one of the reaction cells at a final concentration of 150 μM. IHP is used to shift the tetramer/dimer equilibrium completely towards dimer. The effects are visualized through electrochemical measurements when the potential is repetitively cycled (3 scans) from −0.5 to 0.5 V vs. Ag/AgCl at a scan rate of 100 mV s^−1.
(§3) 2,3 diphosphoglycerate (2,3-DPG) is added to the second reaction cell at a final concentration of 2 mM. The stabilization of the immobilized HbA0 by 2,3-DPG, will result in higher electrocatalytic activity than normal due to the presence of more tetrameric protein molecules.

[2] = target: T3, hemoglobin samples from healthy subjects (Homo sapiens, UniProt P68871+P69905); assay: as above; conditions: after addition of IHP 150 μM or 2,3-DPG 2 mM; 85 mM H2O2
T3 construct: Hemoglobin from whole blood of test subjects is immobilized to the surface of electrodes; from tissue; host or cells: whole blood of healthy subjects
Experimental: as §1, §2, §3

T2 sequence (P69905 2-142): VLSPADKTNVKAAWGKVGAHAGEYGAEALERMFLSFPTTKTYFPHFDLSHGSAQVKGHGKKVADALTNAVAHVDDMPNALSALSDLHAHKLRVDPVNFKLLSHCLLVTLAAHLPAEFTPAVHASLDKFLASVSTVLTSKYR
T2 sequence (P68871 2-147): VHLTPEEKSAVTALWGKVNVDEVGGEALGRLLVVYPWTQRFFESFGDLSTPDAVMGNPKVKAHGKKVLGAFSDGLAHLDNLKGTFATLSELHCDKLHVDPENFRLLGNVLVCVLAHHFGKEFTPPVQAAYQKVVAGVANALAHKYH
T1 sequence (P69905 2-142 limits assumed): as the sequence (P69905 2-142) above
T1 sequence (P68871 2-147 limits assumed): as the sequence (P68871 2-147) above
T3 sequence (P69905 2-142 limits assumed): as the sequence (P69905 2-142) above
T3 sequence (P68871 2-147 limits assumed): as the sequence (P68871 2-147) above

Row | electrochemical current (peroxidase activity of hemoglobin immobilized chip) (human hemoglobin (HbA0); 0-8 M urea, 30 min incubation, 85 mM H2O2 (FIG. 4)) | current measured at the electrode surface, hemoglobin samples from healthy subjects [2] | peroxidase activity of immobilized HbA0 (human hemoglobin (HbA0)) | Electrocatalytic Activity in Healthy HbA0 (human hemoglobin (HbA0)) | Structure (SMILES) | Electrocatalytic Activity in Malaria-Infected HbA0 [1]
1 | decrease |  |  |  | NC(N)=O [urea] | 
2 |  | increase | increased | Increase | O=C(O)C(COP(=O)(O)O)OP(=O)(O)O (stereo not drawn) [2,3-DPG, 2,3-diphosphoglycerate] | not be a significant change; also recorded: No change
3 |  | decrease | decrease | Decrease | O=P(O)(O)O[C@H]1[C@H](OP(=O)(O)O)[C@@H](OP(=O)(O)O)[C@H](OP(=O)(O)O)[C@@H](OP(=O)(O)O)[C@H]1OP(=O)(O)O [IHP, inositol hexaphosphate] | not be a significant change; also recorded: No change
